Here are results for 19 compounds from paper PMC3983391 (Journal of medicinal chemistry, 2014).

Entries after “also recorded” stand apart in the source; their conditions may differ.

The test system of data set [1] is A549 cells. Kind of data set: Immunocytochemistry of cellular microtubules. Conditions: A549, 24 h; 5f 3 nM, paclitaxel 100 nM, colchicine 100 nM. In kind it is cell-based, human.
Data set [2] deals with human tumor cell line (HTCL) panel (A549, KB, KBvin, DU145). Kind of data set: SRB antiproliferative activity, ranges over the HTCL panel. It is filed as cell-based. Conditions: read-out: GI50 range over HTCL panel.
A short description of data set [3]: Toxicity in the nude mouse MCF7 xenograft study. The following applies: nude mice; for death: dead/total.
For data set [4], the system named is A549 cells. Kind of data set: Cell cycle analysis by propidium iodide flow cytometry. It is filed as cell-based, human. The following applies: A549, 24 h; 5f 3 nM, colchicine 300 nM.
Data set [5] concerns tubulin (vinblastine site). Kind of data set: Competitive inhibition assay, BODIPY FL-vinblastine binding to tubulin. Also noted: species or system dog. Conditions: tubulin 4 μM, BODIPY FL-vinblastine 2 μM; even at 30–100 μM.
Another data set has as its system MCF7 tumor xenografts. Kind of data set: Nude mouse MCF7 xenograft antitumor assay. It is filed as in vivo. Conditions: 4 mg/kg i.v. every 3 days; p < 0.05 from day 10 onward.
The conditions of data set [6]: data reported previously; cited from earlier work.

For the compound `CC(=O)O[C@H]1C(=O)[C@@]2(C)[C@H]([C@H](OC(=O)c3ccccc3)[C@]3(O)C[C@H](OC(=O)[C@H](O)[C@@H](NC(=O)c4ccccc4)c4ccccc4)C(C)=C1C3(C)C)[C@]1(OC(C)=O)CO[C@@H]1C[C@@H]2O` [paclitaxel], the “effect on cellular microtubule network” value in the data set with A549 cells [1] is reported as “retained a spindle-shaped microtubule network”.
For orientation: GI50 means the concentration that inhibits growth by half. Turning to `Cc1ccc2c(c1)CCCN2c1nc(C)nc2ccccc12` [4b, 2-Methyl-4-(N-(6-methyl-1,2,3,4-tetrahydroquinolinyl))-quinazoline], the GI50 in data set [2] was 169 to 211 nM.
In the case of `COc1ccc2c(c1)CCCN2c1nc(Cl)nc2ccccc12` [1a, 2-chloro-4-(6-methoxy-3,4-dihydroquinolin-1(2H)-yl)quinazoline], in data set [3] (4 mg/kg i.v., Q3D × 6), the death is recorded as 0/5.
As for `COc1ccc2c(c1)OCCN2c1nc(C)nc2ccccc12` [5e], the GI50 in data set [2] is 153 to 211 nM.
Turning to `COc1ccc2c(c1)C(O)CCN2c1nc(C)nc2ccccc12` (centres unmarked) [5c, 4-(N-(4-Hydroxy-6-methoxy-1,2,3,4-tetrahydroquinolinyl))-2-methylquinazoline], in data set [2], the GI50 lay in the range of 17 to 19 nM.
The same measure, in the same setting: with `COc1ccc2c(c1)C(=O)CCN2c1nc(C)nc2ccccc12` [5b, 4-(N-(6-Methoxy-2,3-dihydro-4-oxoquinolinyl))-2-methyl-quinazoline] the figure was 19 to 24 nM.
Turning to `COc1cc2c(c(OC)c1OC)-c1ccc(OC)c(=O)cc1[C@@H](NC(C)=O)CC2` [colchicine, reference compound], the “effect on the cell cycle” value in the data set with A549 cells [4] is recorded as “arrested at the G2/M phase”. For the same compound, in the data set on A549 cells [1], the “effect on cellular microtubule network” value is “microtubule network disappeared”.
As for `Cc1ccc2c(c1)CCCN2c1nc(Cl)nc2ccccc12` [4a, 2-Chloro-4-(N-(6-methyl-3,4-dihydroquinolinyl))quinazoline], the GI50 in data set [2] is 43 to 57 nM.
Still for that read-out and setting: to `COc1ccc2c(c1)CCN2c1nc(Cl)nc2ccccc12` [5h, 2-Chloro-4-(N-(5-methoxy)indolinyl)quinazoline] belongs 170 to 320 nM.
Take `COc1ccc2c(c1)C(=O)CCN2c1nc(Cl)nc2ccccc12` [5a, 2-Chloro-4-(N-(6-methoxy-2,3-dihydro-4-oxoquinolinyl))-quinazoline]: the GI50 in data set [2] lay in the range of 27 to 33 nM.
Take `COc1ccc2c(c1)NC(=O)CN2c1nc(C)nc2ccccc12` [5f, 2-Methyl-4-(7-methoxy-2-oxo-3,4-dihydroquinoxalin-4(1H)-yl)quinazoline]: the “effect on the cell cycle” value in the data set with A549 cells [4] is given as “arrested at the G2/M phase”. The “effect on binding of BODIPY FL-vinblastine to tubulin” value in data set [5] is “did not significantly change; also recorded: did not compete”. In data set [3] (4 mg/kg i.v. every 3 days, 4 mg/kg), the toxicity observation entry was “toxicity and death; also recorded: all seven mice died; also recorded: death of all treated mice”. Also, the death in data set [3] (4 mg/kg i.v., Q3D × 6) is 7/7. Moreover, the GI50 in data set [2] was 1.9 to 3.2 nM. Besides, the “effect on cellular microtubule network” value with A549 cells [1] was “microtubule network disappeared”.
As for `COc1ccc2c(c1)CCCN(c1nc(C)nc3ccccc13)C2` [5m, 4-(N-(7-Methoxy-2,3,4,5-tetrahydro-1H-benzo[c]azepinyl))-2-methylquinazoline], the GI50 in data set [2] lay within 5450 to 19600 nM.
Turning to `COc1ccc2c(c1)N(C)C(=O)CN2c1nc(C)nc2ccccc12` [5g, 2-Methyl-4-(1-methyl-7-methoxy-2-oxo-3,4-dihydroquinox-alin-4-yl)quinazoline], the “growth of MCF7 tumor xenografts (tumor volume vs control)” value with MCF7 tumor xenografts is listed as “significantly inhibited”. Besides, in data set [3] (4 mg/kg i.v., Q3D × 6), the “body weight change (%)” value is “+2.28%” and the death is on record as 0/7. Further, the GI50 in data set [2] lay within 17 to 25 nM.
Regarding `COc1ccc2c(c1)CCCN(c1nc(Cl)nc3ccccc13)C2` [5l, 2-Chloro-4-(N-(7-methoxy-2,3,4,5-tetrahydro-1H-benzo[c]-azepinyl))quinazoline], the GI50 in data set [2] was 5450 to 19600 nM.
Still for that read-out and setting: to `COc1ccc2c(c1)CCCCN2c1nc(C)nc2ccccc12` [5k, 4-(N-(7-Methoxy-2,3,4,5-tetrahydro-1H-benzo[b]azepinyl))-2-methylquinazoline] belongs 18 to 21 nM.
With `COc1ccc2c(c1)CCCN2c1nc(C)nc2ccccc12` [1b, 2-methyl-4-(6-methoxy-3,4-dihydroquinolin-1(2H)-yl)quinazoline], in data set [6], the “human liver microsome t1/2” value is reported as 25.2 min. The death in data set [3] (4 mg/kg i.v., Q3D × 6) was 1/6.
Turning to `COc1ccc2c(c1)CCN2c1nc(C)nc2ccccc12` [5i, 4-(N-(5-Methoxy)indolinyl)-2-methylquinazoline], the GI50 in data set [2] lay in the range of 170 to 320 nM.
With `COc1ccc2c(c1)OCCN2c1nc(Cl)nc2ccccc12` [5d, 2-Chloro-4-(N-(7-methoxy-3,4-dihydro-2H-benzo[b][1,4]-oxazinyl))quinazoline], in data set [2], the GI50 was 153 to 211 nM.
Turning to `Cc1nc(N2CCCc3cc(Br)ccc32)c2ccccc2n1` [4c, 4-(N-(6-Bromo-1,2,3,4-tetrahydroquinolinyl))-2-methylqui-nazoline], in data set [2], the GI50 is 169 to 211 nM.
